Series [1] in a line: Stability in intestinal microsomes. Format: in vitro ADME. The following applies: human intestinal microsomes 1.0 mg/mL, 10 μM, NADPH, 60 min. As for the experimental part: Stability of test compounds were determined in human liver and intestinal microsomes in duplicate for each matrix. Pooled liver and intestinal microsomal proteins (1.0 mg/mL), suspended in incubation buffer (100 mM potassium phosphate, pH 7.4, 5 mM MgCl2, and 0.1 mM EDTA), were preincubated for 5 min at 37° C. with 10 μM of a test compound from a 10 mM stock solution in DMSO (final DMSO concentration was 0.1%); the reaction was initiated by the addition of NADPH (3 mM final concentration). At specific times (0 and 60 min), 0.1 mL samples were taken and the reaction terminated by the addition of 4 volumes of stop solution (acetonitrile with 500 ng/mL carbutamide as an internal standard). The samples were vortexed for 30 sec and then centrifuged at 16000×g for 10 min. 100 μL of supernatants were transferred to 96 deep-well plates preloaded with 100 μL distilled water and analyzed after mixing by LC-MS/MS. The MS peak area ratio of the test compound versus the internal standard was calculated and percent unchanged test compound over 60 minutes was calculated using this ratio.

The subject of another series is fresh mouse hepatocytes. In words: Release of active metabolite in fresh mouse hepatocytes. It counts as in vitro ADME. The following applies: 10 μM. How it is done:
Plates of fresh human and mouse hepatocytes were obtained on ice. The medium was removed and replaced with hepatocyte culture medium (William's E supplemented with penicillin-streptomycin, 1% L-glutamine, 1% insulin-transferrin-selenium and 0.1 μM Dexamethasone (Invitrogen) or with Invitro GRO HI medium complemented with Torpedo antibiotics (Celsis)). Cells were left overnight in an incubator at 37° C. to acclimatize to culture and the medium.
Hepatocyte incubations were conducted at a final volume of 0.5 mL hepatocyte culture medium/well (0.8 million cells/well for human and 0.5 million cells/well for mouse; 12 well plate no overlay, collagen coat). Culture medium from overnight incubation of cells was removed and replaced with fresh medium, pre-warmed to 37° C., containing 10 μM of test compound from a stock solution in DMSO (final DMSO concentration was 0.1%). At each specific time point, incubation medium was removed and cell monolayers were carefully washed two times with ice-cold PBS. Following the last wash, all PBS was carefully removed and 1.0 mL of extraction solution (ice-cold 70% methanol/30% water) added. Cells were scraped off and suspended in the extraction solution, transferred to 2 mL polypropylene microfuge tubes and intracellular contents extracted overnight at −20° C.
After the overnight treatment the cellular extracts were prepared by centrifugation at 16,000×g for 10 min to remove cellular debris. The remaining sample was then dried using a refrigerated centrivap concentrator. Dry extracts were reconstituted in 1000 μL of HPLC-grade water and centrifuged at 16,000×g for 10 min. Aliquots (100 μL each) of the supernatant were transferred into a 96 well plate and internal standard (4 ng/mL final concentration) was added as the internal standard (IS) for LC-MS/MS analysis.
The incubation time points were 6, 24 and 48 hours for human hepatocytes and 1, 4, 8, 12 and 24 hours for mouse hepatocytes.

A short description of series [2]: Liver triphosphate pharmacokinetics after single oral dose in cynomolgus monkeys. The following applies: 6 hours post dose, 10 mg/kg oral, normalized to 1 μmol/kg dose. It counts as in vivo. As for the experimental part: For each compound, a single oral dose at 10 mg/kg in PEG 200 (dose volume 3 mL/kg) was administered to cynomolgus monkeys. Untreated animals were used for the collection of control liver. Plasma samples were collected at 0.5, 1, 2, 4, 6, 8, 12 and 24 hours for compound 37, diastereomer 2.
Liver samples were analyzed for the relevant nucleoside triphosphate by LC-MS/MS. […] Appropriate internal standard solution was added to the homogenate followed by neutralization with 20% ammonium hydroxide solution and addition of 500 μL 1% formic acid. The tissue samples were extracted by weak anion exchange solid phase extraction (SPE). Post extraction, the eluates were evaporated under nitrogen, followed by reconstitution before injection onto the LC-MS/MS system.

A short description of series [3]: Stability in fresh whole blood. Format: in vitro ADME. The following applies: human whole blood, 0.5 μM. How it is done: Stability of the test compounds was determined in fresh human whole blood with K2EDTA as the anticoagulant (stored refrigerated at 2-8° C. and used within 7 days of receipt). The experiment was conducted with three replicates for each time point. Whole blood, pre-incubated at 37° C. for 10-15 minutes, was fortified with a solution of test compound for a final concentration of 0.5 μM and mixed for 30 sec. At intervals (0, 0.5, 1 and 2 hr), three […] aliquots were combined with 200 μL (each) of an ice-cold solution of the internal standard (carbutamide 500 ng/mL in acetonitrile). The samples were vortexed for 30 sec and then centrifuged at 16100×g for 5 min. The supernatant was analyzed by LC-MS/MS. The MS peak area ratio of the test compound versus the internal standard was calculated and percent unchanged test compound was calculated for each time point using this ratio.

The next series concerns HCV genotype 1b replicon. Nature of the series: HCV replicon assay (Zluc luciferase). Format: cell-based. The following applies: Zluc cells, 72 hours; read-out: HCV Replicon EC50. The method, boiled down:
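Zluc Huh-7 cells with HCV genotype 1b replicon and luciferase reporter treated with 5-fold dilutions (100 μM to 0.0000512 μM final) in duplicate, or at 1 and 10 μM. Luminescence read with ONE-glo; EC50 from dose-response fits, or % inhibition at the fixed concentrations.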
(In general: In antiviral work, replicon cells carry a viral genome segment that copies itself.)

A short description of series [4]: Liver triphosphate pharmacokinetics after single oral dose in CD-1 mice.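 On Ms Liver TP AUC: pmol·h/g liver normalized to a 1 µmol/kg dose.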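 On Ms Liver TP Cmax: pmol/g liver normalized to a 1 µmol/kg dose.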 It counts as in vivo. The following applies: single oral dose 10 mg/kg in PEG 200. As for the experimental part: Internal standard solution was added to the homogenate followed by neutralization with 20% ammonium hydroxide solution and addition of 500 μL 1% formic acid. The tissue samples were extracted by weak anion exchange solid phase extraction (SPE). Post extraction, the eluates were evaporated under nitrogen, followed by reconstitution before injection onto the LC-MS/MS system.

The EC50 is the concentration needed to bring the measured effect to its halfway point.

`CC(C)OC(=O)[C@H](C)NP(=O)(OC[C@H]1O[C@@H](n2ccc(=O)[nH]c2=O)[C@](C)(Cl)[C@@H]1O)Oc1ccccc1` (single isomer, unassigned) [Compound 40ii Diastereomer 2]: the “HIM (1 hr) stability (percent remaining)” value in series [1] is “++++ (75% < ++++)”. In the series on fresh mouse hepatocytes, the “MsH AUC” value is “++++ (1500 < ++++)” and the “MsH Cmax” value is “+++ (50 < +++ ≤ 100)”. The “Nucleoside triphosphate in Liver C6” value in series [2] is given as “++++ (100 < ++++)”. Further, the “WB_Human (37° C.; 2 hr) stability (percent remaining)” value in series [3] is “++++ (75% < ++++)”. Further, the EC50 with HCV genotype 1b replicon is less than 250 nM. In series [4], the “Ms Liver TP AUC” value was “+++ (500 < +++ ≤ 1500)” and the “Ms Liver TP Cmax” value is on record as “++ (15 < ++ ≤ 50)”.
